Format in all cases: cell-based
The target in assay [1] is T1, M2 muscarinic receptor (Homo sapiens, UniProt P08172).
T1 construct: expressed in transfected cells; host or cells: CHO (M2-CHO)
T1 sequence (P08172 1-466): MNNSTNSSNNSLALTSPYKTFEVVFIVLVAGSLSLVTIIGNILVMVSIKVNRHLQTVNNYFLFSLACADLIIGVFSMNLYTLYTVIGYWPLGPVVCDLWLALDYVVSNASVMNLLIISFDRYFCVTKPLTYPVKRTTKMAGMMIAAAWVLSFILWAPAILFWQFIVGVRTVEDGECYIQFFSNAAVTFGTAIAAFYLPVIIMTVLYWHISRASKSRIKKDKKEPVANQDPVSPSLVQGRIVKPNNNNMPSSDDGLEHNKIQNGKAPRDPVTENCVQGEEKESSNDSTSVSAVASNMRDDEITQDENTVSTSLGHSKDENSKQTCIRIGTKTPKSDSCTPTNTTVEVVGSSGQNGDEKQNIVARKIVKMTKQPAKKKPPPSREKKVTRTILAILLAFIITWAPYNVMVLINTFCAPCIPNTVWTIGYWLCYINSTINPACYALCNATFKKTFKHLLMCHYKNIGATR
Description: Functional mobilization of intracellular calcium (FLIPR) in CHO cells expressing M2. The following applies: for M2 Activity: CHO cells expressing M2, FLIPR calcium assay; for Emax: CHO, 100% efficacy = maximum response obtained with the Carbachol control. Summed up:
(§1)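 Calcium flux is read on FLIPR over 60 sec at 488/540 nm in muscarinic-receptor CHO lines. Antagonist mode adds carbachol at EC80 after 15 min compound preincubation or with simultaneous co-application. Agonist mode adds compound alone. Cells carry Fluo-3 or Calcium 3 dye in probenecid-containing pH 7.4 buffer, 0.5% DMSO final.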

In assay [2] the target is T2, M3 muscarinic receptor (Homo sapiens, UniProt P20309).
T2 construct: expressed in transfected cells; host or cells: CHO (M3-CHO)
The experiment in a line: Functional mobilization of intracellular calcium (FLIPR) in CHO cells expressing M3. The following applies: for M3 Activity: CHO cells expressing M3, FLIPR calcium assay; for Emax: CHO, 100% efficacy = maximum response obtained with the Carbachol control. Summed up: as §1

Assay [3] deals with T3, M4 muscarinic receptor (Homo sapiens, UniProt P08173).
T3 construct: expressed in transfected cells; host or cells: CHO (M4-CHO)
T3 sequence (P08173 1-479): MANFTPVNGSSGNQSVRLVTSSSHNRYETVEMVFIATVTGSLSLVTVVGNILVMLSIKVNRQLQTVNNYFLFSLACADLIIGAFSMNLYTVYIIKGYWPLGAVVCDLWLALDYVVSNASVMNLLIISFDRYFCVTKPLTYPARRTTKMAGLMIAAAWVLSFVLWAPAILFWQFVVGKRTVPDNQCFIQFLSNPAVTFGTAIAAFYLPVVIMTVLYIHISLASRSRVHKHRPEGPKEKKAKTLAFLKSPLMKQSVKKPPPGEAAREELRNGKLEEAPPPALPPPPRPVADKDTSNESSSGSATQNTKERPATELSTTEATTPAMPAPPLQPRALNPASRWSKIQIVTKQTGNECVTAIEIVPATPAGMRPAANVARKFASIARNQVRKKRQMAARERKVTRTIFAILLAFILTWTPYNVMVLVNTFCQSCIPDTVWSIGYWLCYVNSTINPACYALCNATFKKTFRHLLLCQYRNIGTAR
The experiment in a line: Functional mobilization of intracellular calcium (FLIPR) in CHO cells expressing M4. To be noted: for M4 Activity: CHO cells expressing M4, FLIPR calcium assay; for Emax: CHO, 100% efficacy = maximum response obtained with the Carbachol control. Summed up:
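Recombinant CHO cells loaded with Fluo-3 AM or Calcium 3 dye in pH 7.4 buffer containing 1 mM probenecid, with 0.5% final DMSO. For agonism, compound is added directly. For inhibition, it is preincubated 15 min, or co-applied, before carbachol at EC80. FLIPR fluorescence (ex 488, em 540 nm) is recorded for 60 s.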

The target in assay [4] is T4, M1 muscarinic receptor (Homo sapiens, UniProt P11229).
T4 construct: expressed in transfected cells; host or cells: CHO (M1-CHO)
T4 sequence (P11229 1-460): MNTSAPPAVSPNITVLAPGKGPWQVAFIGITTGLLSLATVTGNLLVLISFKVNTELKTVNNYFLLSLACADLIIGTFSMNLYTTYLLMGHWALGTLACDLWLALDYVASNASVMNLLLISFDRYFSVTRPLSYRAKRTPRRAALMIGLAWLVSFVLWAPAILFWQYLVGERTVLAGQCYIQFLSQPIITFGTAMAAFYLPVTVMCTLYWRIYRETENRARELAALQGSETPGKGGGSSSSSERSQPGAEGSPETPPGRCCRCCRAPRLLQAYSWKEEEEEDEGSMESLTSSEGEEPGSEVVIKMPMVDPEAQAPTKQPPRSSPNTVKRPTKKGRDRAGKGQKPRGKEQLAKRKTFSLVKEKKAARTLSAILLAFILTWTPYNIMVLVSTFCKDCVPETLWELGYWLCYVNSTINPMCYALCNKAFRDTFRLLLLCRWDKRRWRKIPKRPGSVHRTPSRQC
The experiment in a line: Functional mobilization of intracellular calcium (FLIPR) in CHO cells expressing M1. To be noted: for M1 Activity: CHO cells expressing M1, FLIPR calcium assay; for Emax: CHO, 100% efficacy = maximum response obtained with the Carbachol control. Summed up: as §1

Molecules are shown by their SMILES. Bounds are passed on as bounds.

T2 sequence (P20309 whole entry): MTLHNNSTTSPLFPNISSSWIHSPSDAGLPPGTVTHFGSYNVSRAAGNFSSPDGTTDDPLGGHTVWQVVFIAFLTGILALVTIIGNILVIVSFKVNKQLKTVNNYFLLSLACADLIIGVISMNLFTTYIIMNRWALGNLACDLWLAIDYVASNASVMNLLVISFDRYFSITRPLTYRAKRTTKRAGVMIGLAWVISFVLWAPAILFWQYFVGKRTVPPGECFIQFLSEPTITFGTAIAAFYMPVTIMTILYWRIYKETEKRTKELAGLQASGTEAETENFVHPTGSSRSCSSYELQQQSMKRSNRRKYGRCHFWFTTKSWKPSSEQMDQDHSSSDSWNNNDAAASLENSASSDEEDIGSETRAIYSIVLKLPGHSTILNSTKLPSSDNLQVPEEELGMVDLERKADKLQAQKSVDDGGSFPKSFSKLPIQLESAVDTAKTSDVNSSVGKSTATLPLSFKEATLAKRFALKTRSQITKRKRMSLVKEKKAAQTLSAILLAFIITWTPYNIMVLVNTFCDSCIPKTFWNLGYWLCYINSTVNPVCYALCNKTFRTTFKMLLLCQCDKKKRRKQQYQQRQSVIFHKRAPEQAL

Consider `CCN(C(C)=O)[C@H]1CCC2(CCN(CCC(C)C)CC2)c2ccccc21` [compound 213], for which, in assay [1], the “M2 Activity” value is listed as “+ (activity was measured to be greater than 5.0 μM)” and the Emax was < 25%. Further, in assay [2], the “M3 Activity” value is “+ (activity was measured to be greater than 5.0 μM)” and the Emax was < 25%. In assay [3], the “M4 Activity” value is “+++ (activity was measured to be less than 2.0 μM)” and the maximal response (Emax) lay within 25 to 100%. In addition, in assay [4], the “M1 Activity” value was “++ (activity was measured to be from 2.0 μM to 5.0 μM)” and the Emax fell in the range of 25 to 100%.

With `CC(C)(C)CCN1CCC2(CC[C@@H](NC(=O)C3CC3)c3ccc(F)cc32)CC1` [compound 214], in assay [1], the “M2 Activity” value is on record as “+++ (activity was measured to be less than 2.0 μM)” and the Emax was < 25%. In assay [2], the “M3 Activity” value is “+ (activity was measured to be greater than 5.0 μM)” and the Emax is < 25%. In assay [3], the “M4 Activity” value is “+++ (activity was measured to be less than 2.0 μM)” and the Emax was in the range of 25 to 100%. Also, in assay [4], the “M1 Activity” value is recorded as “+++ (activity was measured to be less than 2.0 μM)” and the Emax is 25 to 100%.

For the molecule `COCCC(=O)N[C@H]1CCC2(CCN(CCC(C)(C)C)CC2)c2cc(F)ccc21` [compound 215], in assay [1], the “M2 Activity” value was “+++ (activity was measured to be less than 2.0 μM)” and the maximum response (Emax) lay in the range of 25 to 100%. In assay [2], the “M3 Activity” value is on record as “+ (activity was measured to be greater than 5.0 μM)” and the Emax is < 25%. In assay [3], the “M4 Activity” value was “+++ (activity was measured to be less than 2.0 μM)” and the Emax was in the range of 25 to 100%. Moreover, in assay [4], the “M1 Activity” value is listed as “+++ (activity was measured to be less than 2.0 μM)” and the Emax fell in the range of 25 to 100%.

As to `Cc1cc(C(=O)N[C@@H]2CCC3(CCN(CCC(C)(C)C)CC3)c3ccccc32)nn1C` [compound 216], in assay [1], the “M2 Activity” value was “++ (activity was measured to be from 2.0 μM to 5.0 μM)” and the Emax was in the range of 25 to 100%. Also, in assay [2], the “M3 Activity” value is “+ (activity was measured to be greater than 5.0 μM)” and the maximal effect (Emax) was < 25%. In assay [3], the “M4 Activity” value is recorded as “+++ (activity was measured to be less than 2.0 μM)” and the Emax lay within 25 to 100%. Also, in assay [4], the “M1 Activity” value was “++ (activity was measured to be from 2.0 μM to 5.0 μM)” and the Emax lay in the range of 25 to 100%.

`CC(C)(C)CCN1CCC2(CC[C@@H](NC(=O)C3CCOCC3)c3ccc(F)cc32)CC1` [compound 217]: in assay [1], the “M2 Activity” value is “+ (activity was measured to be greater than 5.0 μM)” and the Emax is < 25%. In assay [2], the “M3 Activity” value is on record as “+ (activity was measured to be greater than 5.0 μM)” and the Emax is < 25%. Further, in assay [3], the “M4 Activity” value is recorded as “+++ (activity was measured to be less than 2.0 μM)” and the Emax lay in the range of 25 to 100%. In addition, in assay [4], the “M1 Activity” value is “++ (activity was measured to be from 2.0 μM to 5.0 μM)” and the Emax lay within 25 to 100%.

Consider `CC(=O)N(C)[C@H]1CCC2(CCN(CCC(C)(C)C)CC2)c2cc(F)ccc21` [compound 218], for which, in assay [1], the “M2 Activity” value is reported as “+++ (activity was measured to be less than 2.0 μM)” and the Emax is < 25%. Besides, in assay [2], the “M3 Activity” value is “+ (activity was measured to be greater than 5.0 μM)” and the maximal response (Emax) was < 25%. Besides, in assay [3], the “M4 Activity” value is on record as “+++ (activity was measured to be less than 2.0 μM)” and the Emax was 25 to 100%. Besides, in assay [4], the “M1 Activity” value is on record as “+++ (activity was measured to be less than 2.0 μM)” and the Emax fell in the range of 25 to 100%.

`Cn1cncc1C(=O)N[C@H]1CCC2(CCN(CCC(C)(C)C)CC2)c2ccccc21` [compound 219]: in assay [1], the “M2 Activity” value was “+++ (activity was measured to be less than 2.0 μM)” and the Emax was 25 to 100%. Further, in assay [2], the “M3 Activity” value was “+ (activity was measured to be greater than 5.0 μM)” and the Emax is < 25%. In assay [3], the “M4 Activity” value is on record as “+++ (activity was measured to be less than 2.0 μM)” and the Emax was in the range of 25 to 100%. Further, in assay [4], the “M1 Activity” value is on record as “+++ (activity was measured to be less than 2.0 μM)” and the maximal response (Emax) was in the range of 25 to 100%.

Regarding `CC(C)(C)CCN1CCC2(CC[C@@H](NC(=O)C3CCCO3)c3ccccc32)CC1` (stereo partly drawn) [compound 220], in assay [1], the “M2 Activity” value is listed as “+ (activity was measured to be greater than 5.0 μM)” and the Emax is < 25%. In addition, in assay [2], the “M3 Activity” value is listed as “+ (activity was measured to be greater than 5.0 μM)” and the Emax is < 25%. For the same molecule, in assay [3], the “M4 Activity” value is listed as “+++ (activity was measured to be less than 2.0 μM)” and the Emax lay within 25 to 100%. Moreover, in assay [4], the “M1 Activity” value was “+ (activity was measured to be greater than 5.0 μM)” and the Emax was < 25%.

Consider `CCN(C(=O)CCOC)[C@H]1CCC2(CCN(CCC(C)(C)C)CC2)c2ccccc21` [compound 221], for which, in assay [1], the “M2 Activity” value is “+ (activity was measured to be greater than 5.0 μM)” and the Emax is < 25%. Further, in assay [2], the “M3 Activity” value is “+ (activity was measured to be greater than 5.0 μM)” and the Emax is < 25%. Besides, in assay [3], the “M4 Activity” value is listed as “+++ (activity was measured to be less than 2.0 μM)” and the Emax was in the range of 25 to 100%. Further, in assay [4], the “M1 Activity” value is reported as “++ (activity was measured to be from 2.0 μM to 5.0 μM)” and the Emax lay within 25 to 100%.

With `CC(C)(C)CCN1CCC2(CC[C@H](N3CCCCC3=O)c3ccc(F)cc32)CC1` [compound 222], in assay [1], the “M2 Activity” value was “+ (activity was measured to be greater than 5.0 μM)” and the Emax is < 25%. For the same molecule, in assay [2], the “M3 Activity” value is reported as “+ (activity was measured to be greater than 5.0 μM)” and the Emax was < 25%. In assay [3], the “M4 Activity” value is on record as “+++ (activity was measured to be less than 2.0 μM)” and the Emax lay in the range of 25 to 100%. Besides, in assay [4], the “M1 Activity” value is recorded as “+++ (activity was measured to be less than 2.0 μM)” and the Emax was in the range of 25 to 100%.

Regarding `CCN(C(=O)Cc1ccncc1)[C@H]1CCC2(CCN(CCC(C)(C)C)CC2)c2ccccc21` [compound 223], in assay [1], the “M2 Activity” value was “+ (activity was measured to be greater than 5.0 μM)” and the Emax is < 25%. Besides, in assay [2], the “M3 Activity” value is “+ (activity was measured to be greater than 5.0 μM)” and the Emax was < 25%. In assay [3], the “M4 Activity” value is recorded as “+++ (activity was measured to be less than 2.0 μM)” and the Emax fell in the range of 25 to 100%. In assay [4], the “M1 Activity” value is listed as “+ (activity was measured to be greater than 5.0 μM)” and the Emax fell in the range of 25 to 100%.

For `CC(C)(C)CCN1CCC2(CC[C@H](NC(=O)C(F)(F)F)c3ccccc32)CC1` [compound 224], in assay [1], the “M2 Activity” value is on record as “+ (activity was measured to be greater than 5.0 μM)” and the Emax was < 25%. Besides, in assay [2], the “M3 Activity” value was “+ (activity was measured to be greater than 5.0 μM)” and the Emax is < 25%. Also, in assay [3], the “M4 Activity” value is “+++ (activity was measured to be less than 2.0 μM)” and the Emax lay in the range of 25 to 100%. In addition, in assay [4], the “M1 Activity” value is listed as “+++ (activity was measured to be less than 2.0 μM)” and the Emax was 25 to 100%.

For the origin of these results see patent US8003660B2, “Modulators of muscarinic receptors” (Vertex Pharmaceuticals Incorporated, priority 2006, dated 2011).
